Experimental data reported in publication PMC7736581, “Activation of the IRE1 RNase through remodeling of the kinase front pocket by ATP-competitive ligands” (Nature Communications, 2020).
Read-outs that look alike come from different tables or passages of the source.

Tests used:
[1] = test system: T1, IRE1 (endogenous, KMS-11); test: cells; set-up: XBP1s mRNA by branched DNA assay in KMS-11 cell lysates after compound treatment; settings: Homo sapiens, KMS-11, 4 h
T1 construct: endogenous full-length in KMS-11 cells
Description: 15-20k KMS-11 cells in RPMI growth media were seeded into 96-well plates and treated with compounds or DMSO control over a period of 4 h the following day. RNA levels of XBP1s and DGAT2 in KMS-11 cell lysates were measured using the QuantiGene 2.0 bDNA assay technology (Thermofisher). See Supplementary Table 4 for sequences of relevant capture probes. Data analysis was carried out against an assay background control with no cell lysate (no-RNA control). In the case of AMG-18, cells were also stimulated with thapsigargin (Tg, 100 nM) 30 min after compound addition. No Tg was used when treating cells with all other compounds. Samples were run in duplicate. To investigate whether this peculiar conformation had any role in the mechanism of activation of G-1749, we evaluated different tails to substitute the ethyl carbamate on the naphthyl moiety (Fig. 3, Supplementary Table 2). […] This is likely due to clashes with residues lining the front pocket, which in turn would force the tails to occupy the back pocket and break the salt bridge, thereby causing RNase inhibition. […] Experiments in KMS-11 cells (Fig. 3b, c, right panels) confirmed the effect of these tail modifications on IRE1 RNase activation. […] The chemical substituents tolerated by the front pocket seem to be very limited: even a minor substitution of the carbamate oxygen atom to a larger [compound left out], from ethyl carbamate to propyl amide (compound 6), or from methyl carbamate to methyl or ethyl amide (compound 4 or 5, respectively), or increasing the tail length by one atom, from ethyl to propyl carbamate (compound 11), is enough to impart a switch from activation to inhibition (Fig. 3b, c). […] RNA cleavage was measured by a kinetic fluorescence assay using an XBP1-like RNA hairpin substrate and IRE1 LKR construct (Q470-L977). Background from the no-protein control was subtracted from signal before calculating fold change. Source data are provided as a Source Data file. Data are presented as the mean for measurements from two independent experiments (n = 2). c RNA levels for IRE1 RNase product XBP1s measured by bDNA assay of lysates from KMS-11 cells treated with compounds for 4 h. Background from the no-RNA control was subtracted from signal before calculating fold change. Source data are provided as a Source Data file. Data are presented as the mean for measurements from two independent experiments (n = 2). d, e Analytical Ultracentrifugation sedimentation velocity (SV-AUC) experiments for (d), IRE1 LKR (Q470-L977) unphosphorylated and autophosphorylated and (e), IRE1 LKR unphosphorylated in the presence of slight excess G-9807 and G-1749. Calculated sedimentation coefficients for IRE1 monomer (3.1 svedbergs) and dimer (4.6 svedbergs) are highlighted by dotted lines. Source data are provided as a Source Data file.

DMPK = DMPK (Homo sapiens, UniProt Q09013); test: biochemical; set-up: Invitrogen kinase panel: Z'Lyte activity (ATP at Km) or LanthaScreen competitive ATP-site binding, percent inhibition
Syk = Syk (Homo sapiens, UniProt P43405); test: biochemical; set-up: Invitrogen kinase panel: Z'Lyte activity (ATP at Km) or LanthaScreen competitive ATP-site binding, percent inhibition
PRAK = target: T2, PRAK (Homo sapiens, UniProt Q8IW41); test: biochemical; set-up: Invitrogen kinase panel: Z'Lyte activity (ATP at Km) or LanthaScreen competitive ATP-site binding, percent inhibition
T2 construct: gene MAPKAPK5

Aurora_A = target: T3, Aurora_A (Homo sapiens, UniProt O14965); test: biochemical; set-up: Invitrogen kinase panel: Z'Lyte activity (ATP at Km) or LanthaScreen competitive ATP-site binding, percent inhibition
T3 construct: gene AURKA
T3 sequence (O14965 1-403): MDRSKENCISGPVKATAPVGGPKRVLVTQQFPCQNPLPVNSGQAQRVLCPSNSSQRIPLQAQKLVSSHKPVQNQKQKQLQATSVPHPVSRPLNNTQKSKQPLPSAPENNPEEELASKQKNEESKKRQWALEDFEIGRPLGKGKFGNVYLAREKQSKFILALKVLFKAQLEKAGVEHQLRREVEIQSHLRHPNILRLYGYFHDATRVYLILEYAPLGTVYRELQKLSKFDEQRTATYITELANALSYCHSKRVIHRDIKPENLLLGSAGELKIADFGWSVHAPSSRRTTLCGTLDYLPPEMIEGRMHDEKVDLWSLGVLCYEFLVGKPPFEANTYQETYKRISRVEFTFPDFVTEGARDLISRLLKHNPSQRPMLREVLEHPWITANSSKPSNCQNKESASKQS

ERK2 = target: T4, ERK2 (Homo sapiens, UniProt P28482); test: biochemical; set-up: Invitrogen kinase panel: Z'Lyte activity (ATP at Km) or LanthaScreen competitive ATP-site binding, percent inhibition
T4 construct: gene MAPK1

Tie2 = target: T5, Tie2 (Homo sapiens, UniProt Q02763); test: biochemical; set-up: Invitrogen kinase panel: Z'Lyte activity (ATP at Km) or LanthaScreen competitive ATP-site binding, percent inhibition
T5 construct: gene TEK

Bmx = Bmx (Homo sapiens, UniProt P51813); test: biochemical; set-up: Invitrogen kinase panel: Z'Lyte activity (ATP at Km) or LanthaScreen competitive ATP-site binding, percent inhibition
DDR1 = DDR1 (Homo sapiens, UniProt Q08345); test: biochemical; set-up: Invitrogen kinase panel: Z'Lyte activity (ATP at Km) or LanthaScreen competitive ATP-site binding, percent inhibition
HIPK1 = HIPK1 (Homo sapiens, UniProt Q86Z02); test: biochemical; set-up: Invitrogen kinase panel: Z'Lyte activity (ATP at Km) or LanthaScreen competitive ATP-site binding, percent inhibition
PrKX = PrKX (Homo sapiens, UniProt P51817); test: biochemical; set-up: Invitrogen kinase panel: Z'Lyte activity (ATP at Km) or LanthaScreen competitive ATP-site binding, percent inhibition
Blk = Blk (Homo sapiens, UniProt P51451); test: biochemical; set-up: Invitrogen kinase panel: Z'Lyte activity (ATP at Km) or LanthaScreen competitive ATP-site binding, percent inhibition
KHS1 = target: T6, KHS1 (Homo sapiens, UniProt Q9Y4K4); test: biochemical; set-up: Invitrogen kinase panel: Z'Lyte activity (ATP at Km) or LanthaScreen competitive ATP-site binding, percent inhibition
T6 construct: gene MAP4K5

[2] = XBP1s mRNA increase, read-out: EC50 (KMS-11 bDNA assay, XBP1s), activators

T5 sequence (Q02763 whole entry): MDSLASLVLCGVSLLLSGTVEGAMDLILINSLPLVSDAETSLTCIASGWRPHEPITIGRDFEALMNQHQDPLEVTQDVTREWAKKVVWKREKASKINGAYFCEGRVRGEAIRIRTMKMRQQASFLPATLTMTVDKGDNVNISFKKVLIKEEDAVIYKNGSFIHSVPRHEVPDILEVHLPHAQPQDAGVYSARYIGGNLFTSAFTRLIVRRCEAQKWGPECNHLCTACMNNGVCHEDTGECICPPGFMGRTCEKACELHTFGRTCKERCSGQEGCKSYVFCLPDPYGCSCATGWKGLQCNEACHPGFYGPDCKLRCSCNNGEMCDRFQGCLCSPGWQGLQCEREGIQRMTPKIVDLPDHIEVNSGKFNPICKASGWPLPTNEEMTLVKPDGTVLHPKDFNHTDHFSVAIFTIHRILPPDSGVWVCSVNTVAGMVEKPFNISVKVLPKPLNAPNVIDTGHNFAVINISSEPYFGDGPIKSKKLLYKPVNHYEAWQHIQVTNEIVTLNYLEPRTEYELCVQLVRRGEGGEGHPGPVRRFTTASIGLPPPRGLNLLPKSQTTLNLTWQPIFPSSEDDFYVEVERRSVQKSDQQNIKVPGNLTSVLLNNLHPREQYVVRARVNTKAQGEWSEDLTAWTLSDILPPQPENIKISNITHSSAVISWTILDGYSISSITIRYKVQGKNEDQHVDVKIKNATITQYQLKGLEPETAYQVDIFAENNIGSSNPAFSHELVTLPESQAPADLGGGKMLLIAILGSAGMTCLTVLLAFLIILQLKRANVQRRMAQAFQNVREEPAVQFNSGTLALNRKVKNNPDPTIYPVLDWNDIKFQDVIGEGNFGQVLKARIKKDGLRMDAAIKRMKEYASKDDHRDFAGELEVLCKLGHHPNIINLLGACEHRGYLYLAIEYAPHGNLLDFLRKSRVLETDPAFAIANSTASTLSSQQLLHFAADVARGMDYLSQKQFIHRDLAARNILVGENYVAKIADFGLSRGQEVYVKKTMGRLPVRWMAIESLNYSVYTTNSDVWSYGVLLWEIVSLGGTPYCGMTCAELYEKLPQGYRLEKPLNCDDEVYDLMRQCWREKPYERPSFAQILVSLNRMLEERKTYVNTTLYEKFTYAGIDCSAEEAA
T4 sequence (P28482 whole entry): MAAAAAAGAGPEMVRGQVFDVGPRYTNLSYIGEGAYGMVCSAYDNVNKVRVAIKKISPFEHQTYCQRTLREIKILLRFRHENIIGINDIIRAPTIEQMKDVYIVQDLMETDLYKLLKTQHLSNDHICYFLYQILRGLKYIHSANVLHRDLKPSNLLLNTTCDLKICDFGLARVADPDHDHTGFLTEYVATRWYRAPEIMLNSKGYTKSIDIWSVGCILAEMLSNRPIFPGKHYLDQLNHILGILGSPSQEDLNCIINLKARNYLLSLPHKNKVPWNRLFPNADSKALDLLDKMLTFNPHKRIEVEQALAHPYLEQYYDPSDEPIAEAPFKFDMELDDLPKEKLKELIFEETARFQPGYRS
Bmx, sequence (P51813 whole entry): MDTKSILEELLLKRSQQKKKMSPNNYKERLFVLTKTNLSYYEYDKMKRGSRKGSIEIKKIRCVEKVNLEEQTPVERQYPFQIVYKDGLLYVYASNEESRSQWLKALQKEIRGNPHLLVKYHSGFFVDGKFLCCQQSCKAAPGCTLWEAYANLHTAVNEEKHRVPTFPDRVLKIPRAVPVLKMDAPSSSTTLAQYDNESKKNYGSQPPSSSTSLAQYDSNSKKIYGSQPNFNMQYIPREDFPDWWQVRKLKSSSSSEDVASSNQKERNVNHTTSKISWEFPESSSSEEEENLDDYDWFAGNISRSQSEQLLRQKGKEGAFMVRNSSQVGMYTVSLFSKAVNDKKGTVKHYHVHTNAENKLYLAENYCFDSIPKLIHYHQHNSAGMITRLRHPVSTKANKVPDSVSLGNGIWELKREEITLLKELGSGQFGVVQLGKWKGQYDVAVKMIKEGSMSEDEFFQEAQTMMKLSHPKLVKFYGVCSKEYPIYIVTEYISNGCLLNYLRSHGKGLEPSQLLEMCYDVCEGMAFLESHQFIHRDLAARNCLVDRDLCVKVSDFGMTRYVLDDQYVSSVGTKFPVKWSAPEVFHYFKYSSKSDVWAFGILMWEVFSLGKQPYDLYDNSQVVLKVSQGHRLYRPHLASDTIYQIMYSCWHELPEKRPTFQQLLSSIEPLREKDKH
T2 sequence (Q8IW41 whole entry): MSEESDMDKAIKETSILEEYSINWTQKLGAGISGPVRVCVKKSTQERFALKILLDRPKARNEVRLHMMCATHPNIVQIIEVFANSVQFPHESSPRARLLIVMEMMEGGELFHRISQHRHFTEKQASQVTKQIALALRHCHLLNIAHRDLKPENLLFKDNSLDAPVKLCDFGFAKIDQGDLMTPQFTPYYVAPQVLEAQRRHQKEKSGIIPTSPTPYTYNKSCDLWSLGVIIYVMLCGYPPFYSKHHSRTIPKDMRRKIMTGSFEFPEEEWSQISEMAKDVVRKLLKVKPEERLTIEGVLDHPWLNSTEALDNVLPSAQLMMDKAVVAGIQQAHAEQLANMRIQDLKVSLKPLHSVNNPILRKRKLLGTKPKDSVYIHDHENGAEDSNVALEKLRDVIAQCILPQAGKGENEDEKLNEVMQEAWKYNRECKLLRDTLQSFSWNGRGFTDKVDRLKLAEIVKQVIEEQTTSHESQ
PrKX, sequence (P51817 whole entry): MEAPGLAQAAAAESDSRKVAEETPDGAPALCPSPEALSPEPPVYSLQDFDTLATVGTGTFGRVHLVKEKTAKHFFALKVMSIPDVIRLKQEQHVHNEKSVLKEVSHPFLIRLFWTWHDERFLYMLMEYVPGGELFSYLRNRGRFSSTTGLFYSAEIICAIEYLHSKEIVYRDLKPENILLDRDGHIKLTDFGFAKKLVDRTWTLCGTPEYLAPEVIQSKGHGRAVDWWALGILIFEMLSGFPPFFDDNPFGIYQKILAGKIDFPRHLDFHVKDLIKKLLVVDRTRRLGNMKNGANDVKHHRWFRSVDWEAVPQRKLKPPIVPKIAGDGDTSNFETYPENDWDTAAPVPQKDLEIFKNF
DMPK, sequence (Q09013 whole entry): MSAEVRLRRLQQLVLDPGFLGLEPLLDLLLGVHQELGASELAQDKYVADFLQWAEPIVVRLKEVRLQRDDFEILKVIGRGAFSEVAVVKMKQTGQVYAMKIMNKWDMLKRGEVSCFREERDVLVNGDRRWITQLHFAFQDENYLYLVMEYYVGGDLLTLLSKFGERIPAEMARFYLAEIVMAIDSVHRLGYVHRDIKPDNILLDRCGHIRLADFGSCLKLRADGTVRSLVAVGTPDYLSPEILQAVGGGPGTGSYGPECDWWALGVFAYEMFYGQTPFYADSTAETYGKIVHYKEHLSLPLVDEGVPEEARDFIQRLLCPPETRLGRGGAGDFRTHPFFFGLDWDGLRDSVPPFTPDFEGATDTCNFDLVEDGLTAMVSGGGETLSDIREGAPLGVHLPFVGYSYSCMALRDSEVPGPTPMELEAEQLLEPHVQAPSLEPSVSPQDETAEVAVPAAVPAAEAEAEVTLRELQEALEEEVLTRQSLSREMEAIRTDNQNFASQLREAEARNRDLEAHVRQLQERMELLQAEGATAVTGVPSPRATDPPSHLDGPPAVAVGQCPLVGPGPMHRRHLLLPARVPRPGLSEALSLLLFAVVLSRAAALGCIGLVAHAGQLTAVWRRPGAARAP
HIPK1, sequence (Q86Z02 whole entry): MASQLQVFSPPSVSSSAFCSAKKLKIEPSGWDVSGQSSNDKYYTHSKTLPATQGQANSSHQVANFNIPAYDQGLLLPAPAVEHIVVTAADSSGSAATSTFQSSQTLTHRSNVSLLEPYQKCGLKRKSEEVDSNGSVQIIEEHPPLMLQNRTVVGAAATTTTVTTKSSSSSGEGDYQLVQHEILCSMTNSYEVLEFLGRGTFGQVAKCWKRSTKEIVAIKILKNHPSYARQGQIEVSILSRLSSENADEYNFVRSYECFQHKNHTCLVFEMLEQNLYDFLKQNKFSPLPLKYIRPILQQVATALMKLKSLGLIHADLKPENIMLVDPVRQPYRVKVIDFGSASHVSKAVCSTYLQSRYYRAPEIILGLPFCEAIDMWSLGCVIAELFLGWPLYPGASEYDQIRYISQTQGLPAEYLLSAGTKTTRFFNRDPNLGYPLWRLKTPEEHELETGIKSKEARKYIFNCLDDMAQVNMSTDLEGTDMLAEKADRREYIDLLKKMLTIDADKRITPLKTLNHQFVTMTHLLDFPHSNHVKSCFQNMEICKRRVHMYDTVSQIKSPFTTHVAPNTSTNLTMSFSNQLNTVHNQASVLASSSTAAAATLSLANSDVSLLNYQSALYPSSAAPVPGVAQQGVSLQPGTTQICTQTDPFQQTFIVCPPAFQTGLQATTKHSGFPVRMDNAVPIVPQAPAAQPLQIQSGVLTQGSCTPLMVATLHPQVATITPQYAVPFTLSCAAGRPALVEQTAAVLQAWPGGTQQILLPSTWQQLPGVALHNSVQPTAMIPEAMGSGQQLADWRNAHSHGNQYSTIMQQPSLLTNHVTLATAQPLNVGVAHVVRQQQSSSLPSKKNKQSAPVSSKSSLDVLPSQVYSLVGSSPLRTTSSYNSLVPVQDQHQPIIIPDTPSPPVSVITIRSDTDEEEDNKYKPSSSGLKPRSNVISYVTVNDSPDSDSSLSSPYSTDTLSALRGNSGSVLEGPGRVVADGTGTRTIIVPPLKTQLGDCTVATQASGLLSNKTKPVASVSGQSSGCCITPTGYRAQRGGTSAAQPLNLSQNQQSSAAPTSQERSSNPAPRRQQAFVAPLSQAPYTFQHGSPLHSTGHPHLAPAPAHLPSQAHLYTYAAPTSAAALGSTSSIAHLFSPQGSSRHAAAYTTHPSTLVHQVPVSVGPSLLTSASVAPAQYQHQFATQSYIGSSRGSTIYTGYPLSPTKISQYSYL

| EC50 ([1]; 100 nM thapsigargin stimulation, XBP1s mRNA decrease, read-out: EC50 (KMS-11 bDNA assay, XBP1s), inhibitors) | EC50 [1, 2] | inhibition at 1 µM (Syk) | inhibition at 1 µM (Aurora_A) | inhibition at 1 µM (ERK2) | inhibition at 1 µM (Tie2) | Structure (SMILES) | inhibition at 1 µM (DMPK) | inhibition at 1 µM (PRAK) | inhibition at 1 µM (Bmx) | inhibition at 1 µM (DDR1) | inhibition at 1 µM (HIPK1) | inhibition at 1 µM (PrKX) | inhibition at 1 µM (Blk) | inhibition at 1 µM (KHS1) |
| --- | --- | --- | --- | --- | --- | --- | --- | --- | --- | --- | --- | --- | --- | --- |
| 0.193 ± 0.036 µM | – | – | – | – | – | Cc1ccc2c(NS(=O)(=O)c3ccccc3Cl)cccc2c1Oc1ncccc1-c1ccnc(N[C@H]2CCCNC2)n1 [AMG-18] | – | – | – | – | – | – | – | – |
| – | 0.223 ± 0.033 µM | -4.5% | -7% | 2% | 12.5% | CC#CC(=O)Nc1cccc2c(Oc3ncccc3-c3ccnc(N[C@H]4CCCNC4)n3)c(C)ccc12 [G-7658] | 1.5% | -1% | -4.5% | 29% | 0.5% | -1.5% | 7.5% | 18% |
| – | 1.77 ± 0.691 µM | 52% | 92% | 78.3% | 95.9% | O=c1cc(-c2n[nH]c3ncc(-c4c(F)cccc4F)cc23)nc(N2CCC(O)CC2)[nH]1 [G-9807] | – | – | – | – | – | – | – | – |

| Structure (SMILES) | EC50 ([1]; 100 nM thapsigargin stimulation, XBP1s mRNA decrease, read-out: EC50 (KMS-11 bDNA assay, XBP1s), inhibitors) | EC50 [1, 2] | inhibition at 1 µM (Syk) | inhibition at 1 µM (Aurora_A) | inhibition at 1 µM (ERK2) | inhibition at 1 µM (Tie2) | inhibition at 1 µM (DMPK) | inhibition at 1 µM (PRAK) | inhibition at 1 µM (Bmx) | inhibition at 1 µM (DDR1) | inhibition at 1 µM (HIPK1) | inhibition at 1 µM (PrKX) | inhibition at 1 µM (Blk) | inhibition at 1 µM (KHS1) |
| --- | --- | --- | --- | --- | --- | --- | --- | --- | --- | --- | --- | --- | --- | --- |
| CCOC(=O)Nc1cccc2c(Oc3ncccc3-c3ccnc(N[C@H]4CCCNC4)n3)c(C)ccc12 [G-1749] | – | 1.31 ± 0.168 µM | -2.5% | -9.5% | 6% | 26% | 0% | 0.5% | -4% | 46% | 1% | -0.5% | 10% | 29.5% |
